pIC50: −log10 of the molar value. “Also recorded” adds a separate entry of the source.
How the values were obtained:
[1] = test system: survivin promoter in SW480 cells; experiment: Survivin luciferase reporter in SW480 cells; format: cell-based; settings: SW480 cells; various concentrations
SW480 cells = experiment: Soft agar assay, Compound A with 5-FU; format: cell-based; settings: for LD50, soft agar assay: 8 days
Description: Compound A solution and upper layer solution containing agarose were mixed, and SW480 cells were added and solidified. Plates were incubated 37° C. at CO2 incubator for 8 days after solidification at room temperature for 30 min, and colonies were counted under microscope (FIG. 19).

[2] = test system: min mice (polyp formed in small intestine and colon); experiment: Min mouse model; format: in vivo; settings: about 300 mpk
Description: Selected compounds of the present invention (Compound B and Compound C) were evaluated in the min mouse model to evaluate their efficacy as anti-cancer agents.
The min mouse model is a widely used model to test for this type of efficacy. The numbers of polyp formed in small intestine and colon of these mice after various treatments were measured (Table 7).

HUVEC = experiment: Tube formation assay (In Vitro Angiogenesis Assay Kit); format: cell-based; settings: 0.1-10 μM, 12 h
Description: Tube formation assay was performed using an In Vitro Angiogenesis Assay Kit (Chemicon International, Inc., Temecula, Calif., USA). Briefly, solid gels were prepared according to the manufacturer's manual on a 96-well tissue culture plate. HUVEC (1×10^5 cells/ml) in HuMedia EG-2 medium containing […] were seeded 100 μl per well onto the surface of the solid gel, ECMatrix™. The cells were incubated with vehicle control, Compound E at 0.1 μM, 0.3 μm, 1.0 μM, 3 μM, and 10 μM, or Fumagilin at 10 μM for 12 h at 37° C. in a CO2 incubator. Tube formation was observed under an inverted light microscope at ×100 magnification. Microscopic fields were photographed with a digital camera.

[3] = test system: NF-κB in stably transfected A549 cells; experiment: NF-κB reporter assay; format: cell-based; settings: PMA 10 ng/ml, 6 hr
Description: Cells were transferred into each well of 96 well white opaque plates (1×10^4 cells/well/50 μl) and incubated 24 hr at 37° C. in 5% CO2 incubator. The test compound, Compound F, was added to each well, and 1 hr later, phorbol 12-myristate 13-acetate (PMA) (10 ng/ml) was added into each well. Plates were incubated further for 6 hr at 37° C. in 5% CO2 incubator. One hundred microliter of Dual-glo FireFly substrate (Promega) was added and incubated for 10 min. Luminescence of each well was measured with a luminometer (Victor II) (FIG. 23).

[4] = test system: IL-2 production in Jurkat cells; experiment: PMA/ionomycin-induced IL-2 production in Jurkat cells; format: cell-based; settings: Homo sapiens, 6 hr
Description: PMA/lonomycin-induced IL-2 production in Jurkat cells: Jurkat cells were seeded into 96 well tissue culture plates (1×10^5 cells/well) and treated with the test compound, Compound F, and further incubated for 60 min at 37° C. in a CO2 incubator. Stimulant (10 ng/ml PMA and 1 μg/ml ionomycin) was added into each well, and the cells were further incubated for 6 hr at 37° C. in a CO2 incubator. Supernatant was collected and concentration of IL-2 was determined with the ELISA kit (OptEIA, BD).

[5] = test system: S.D. rats with Mycobacterium butyricum-induced polyarthritis; experiment: Rat adjuvant-induced arthritis model; format: in vivo
Description: To induce polyarthritis, six-week-old male S.D. rats received intradermal injection (base of tail) of 100 μl of Mycobacterium butyricum (Cat. No. 264010, Difco) in mineral oil (5 mg/ml) on Day 0. The test compound, Compound F, was given once daily at Day 1, 2, 3, 4, 5, 8, 10, 12 and 14 by oral gavage. […] The paw thickness was measured with digital caliper (Mitutoyo, Japan) and the arthritic index was accessed (FIG. 21).

[6] = test system: TNF-α production in THP-1 cells; experiment: LPS-induced TNF-α production in THP-1 cells; format: cell-based; settings: Homo sapiens, LPS 100 ng/ml, 6 hr
Description: LPS-induced TNF-α production in THP-1 cells: THP-1 cells were incubated with 200 nM PMA for 24 hr. Cells were harvested with trypsin and seeded into 96 well tissue culture plates (2×10^4 cells/well). The test compound, Compound F, was added to each well followed by LPS (100 ng/ml). The cells were further incubated for 6 hr at 37° C. in a CO2 incubator. Media was collected and concentration of TNF-α was determined with the ELISA kit (OptEIA, BD).

[7] = test system: TNF-α in serum of ICR mice; experiment: Serum TNF-α induced by intraperitoneal LPS; format: in vivo, mouse; settings: perorally 60 min prior to LPS, blood 90 min after
Description: Male young ICR mice received intraperitoneal injection of LPS (E. coli O111:B4). Compound F was administered perorally 60 min prior to LPS challenge and blood was drawn 90 min subsequent to challenge. Vehicle control mice received the pharmacological carrier used for Compound F only. Concentration of TNF-α in the serum was determined by ELISA method. […] For reference, dexamethasone (Dex, Sigma) was treated (15 mg/kg, oral).

In the case of `CN1CC(=O)N2[C@@H](Cc3ccc(O)cc3)C(=O)N(Cc3cccc4ccccc34)C[C@@H]2N1C(=O)NCc1ccccc1` [Compound A], the “survivin luciferase reporter activity” value [1] was “inhibit expression of survivin; also recorded: inhibit the activity of a survivin luciferase reporter”, the “synergy with 5-FU in soft agar assay” value (SW480 cells) was “synergism of anti-cancer activity; also recorded: synergy” and the “LD50, soft agar assay” value (SW480 cells; in combination with 0 μM 5-FU) was 76 µM. For the same molecule, the “LD50, soft agar assay” value (SW480 cells; in combination with 1 μM 5-FU) was 30 µM and the “LD50, soft agar assay” value (SW480 cells; in combination with 4 μM 5-FU) was 2 µM.
`CN1CC(=O)N2[C@@H](Cc3ccc(O)cc3)C(=O)N(Cc3cccc4cccnc34)C[C@@H]2N1C(=O)NCc1ccccc1` [Compound B] was tested, and the “number of polyp compared to vehicle control mice” value [2] was “reduce the number of polyp in min mice”.
For `C=CCN1CC(=O)N2[C@@H](Cc3ccc(O)cc3)C(=O)N(Cc3ccccc3)C[C@@H]2N1C(=O)NCc1ccccc1` [Compound E], the tube formation (HUVEC) was “inhibited tube formation in a dose-dependent manner”.
With `CC(C)C[C@H]1C(=O)N(CCC(c2ccccc2)c2ccccc2)C[C@H]2N1C(=O)CN(C)N2C(=O)NCc1ccccc1` [Compound F] the NF-κB reporter activity [3] was “effective in inhibiting NF-κB transcription”, the pIC50 [4] was 5.07 and the “increase of paw thickness” value ([5]; oral 30 mg/kg) was “significantly ameliorated the increase of paw thickness”. The “increase of paw thickness” value ([5]; oral 100 mg/kg) was “significantly ameliorated the increase of paw thickness”, the pIC50 [6] was 5.15 and the “LPS-induced TNF-α in serum” value [7] was “reduces LPS-induced TNF-α production in serum in a dose-dependent manner”.

Reference: US7671054B1, “Reverse-turn mimetics and method relating thereto” (Choongwae Pharma Corporation, priority 2001, dated 2010)
